Reference: patent publication US11596639B2, “Substituted indole Mcl-1 inhibitors” (Vanderbilt University, priority 2016, dated 2023)
pKi: −log10 of the molar value. Like-named read-outs stand apart in the source and are kept apart here.

Experiments:
[1] = target: Mcl-1 (Homo sapiens (Human), UniProt Q07820); experiment: TR-FRET binding assay, FITC-Bak peptide and MBP-tagged Mcl-1; conditions: read-out: Ki for Inhibition of Mcl-1 by TR-FRET assay
Description: Compounds are diluted in DMSO in a 16-point, semilog serial dilution scheme. […] The plate was mixed and incubated for 3 hours at room temperature. […] TR-FRET signal is plotted and IC50 and Ki values are calculated in the same manner as the fluorescence polarization anisotropy based competition assays.

[2] = test system: H929 human cancer cell lines; experiment: Cellular viability / proliferation (Cell TiterGlo, 72 h); format: cell-based
Summary of the method: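 Plating is at 1,000 cells/well in 10% FBS medium; after 24 h, compound is added as a 2-fold series starting at 50 μM with under 1% DMSO.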

[3] = Homo sapiens, NCI-H929, 72 h, read-out: GI50 on cellular proliferation of H929 human cancer cell lines, H929 cells, 72 h, Cell TiterGlo, 10% FBS

Chain of Mcl-1 (Q07820 172-327): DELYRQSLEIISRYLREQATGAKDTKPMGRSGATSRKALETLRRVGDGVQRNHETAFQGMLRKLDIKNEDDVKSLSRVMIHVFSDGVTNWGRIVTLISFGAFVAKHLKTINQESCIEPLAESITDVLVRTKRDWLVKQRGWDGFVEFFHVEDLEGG

Compound	pKi [1]	GI50 [2, 3]	GI50 ([2]; H929 cells, 72 h, Cell TiterGlo, 10% FBS, read-out: GI50 on cellular proliferation of H929 human cancer cell lines)
Cc1cc(N2C[C@@H](C)n3c(c(CCCOc4cc(C)c(Cl)c(C)c4)c4ccc(Cl)c(-c5c(C)nn(C)c5C)c43)C2=O)c2c(c1)cc(C(=O)O)n2CCOC(C)C [Example 578, (R)-7-(7-chloro-10-(3-(4-chloro-3,5-dimethylphenoxy)propyl)-4-methyl-1-oxo-6-(1,3,5-trimethyl-1H-pyrazol-4-yl)-3,4-dihydropyrazino[1,2-a]indol-2(1H)-yl)-1-(2-isopropoxyethyl)-5-methyl-1H-indole-2-carboxylic acid]	> 9.70	390 nM	–
CC(=O)N1CCN(C(=O)c2cc(N3C[C@@H](C)n4c(c(CCCOc5cc(C)c(Cl)c(C)c5)c5ccc(Cl)c(-c6c(C)nn(C)c6C)c54)C3=O)c3c(c2)cc(C(=O)O)n3C)CC1 [Example 629, (R)-5-(4-acetylpiperazine-1-carbonyl)-7-(7-chloro-10-(3-(4-chloro-3,5-dimethylphenoxy)propyl)-4-methyl-1-oxo-6-(1,3,5-trimethyl-1H-pyrazol-4-yl)-3,4-dihydropyrazino[1,2-a]indol-2(1H)-yl)-1-methyl-1H-indole-2-carboxylic acid]	> 9.70	560 nM	–
COc1ccc(N2C[C@@H](C)n3c(c(CCCOc4cc(C)c(Cl)c(C)c4)c4ccc(Cl)c(-c5c(C)nn(C)c5C)c43)C2=O)c2c1cc(C(=O)O)n2Cc1cccc(C)n1 [Example 593, (R)-7-(7-chloro-10-(3-(4-chloro-3,5-dimethylphenoxy)propyl)-4-methyl-1-oxo-6-(1,3,5-trimethyl-1H-pyrazol-4-yl)-3,4-dihydropyrazino[1,2-a]indol-2(1H)-yl)-4-methoxy-1-((6-methylpyridin-2-yl)methyl)-1H-indole-2-carboxylic acid]	> 9.70	< 200 nM	–
COc1cc(N2C[C@@H](C)n3c(c(CCCOc4cc(C)c(Cl)c(C)c4)c4ccc(Cl)c(-c5c(C)ncnc5C)c43)C2=O)c2c(c1)cc(C(=O)O)n2Cc1cccc(C)n1 [Example 572, (R)-7-(7-chloro-10-(3-(4-chloro-3,5-dimethylphenoxy)propyl)-6-(4,6-dimethylpyrimidin-5-yl)-4-methyl-1-oxo-3,4-dihydropyrazino[1,2-a]indol-2(1H)-yl)-5-methoxy-1-((6-methylpyridin-2-yl)methyl)-1H-indole-2-carboxylic acid]	> 9.70	300 nM	–
Cc1cc(OCCCc2c3n(c4c(-c5c(C)nn(C)c5C)c(Cl)ccc24)[C@H](C)CN(c2cn(C)c4ncc(C(=O)O)nc24)C3=O)cc(C)c1Cl [Example 585, (R)-7-(7-chloro-10-(3-(4-chloro-3,5-dimethylphenoxy)propyl)-4-methyl-1-oxo-6-(1,3,5-trimethyl-1H-pyrazol-4-yl)-3,4-dihydropyrazino[1,2-a]indol-2(1H)-yl)-5-methyl-5H-pyrrolo[2,3-b]pyrazine-2-carboxylic acid]	> 9.70	1500 nM	–
Cc1ccnc(Cn2c(C(=O)O)cc3cc(C)cc(N4C[C@@H](C)n5c(c(CCCOc6cc(C)c(Cl)c(C)c6)c6ccc(Cl)c(-c7c(C)ncnc7C)c65)C4=O)c32)c1 [Example 577, (R)-7-(7-chloro-10-(3-(4-chloro-3,5-dimethylphenoxy)propyl)-6-(4,6-dimethylpyrimidin-5-yl)-4-methyl-1-oxo-3,4-dihydropyrazino[1,2-a]indol-2(1H)-yl)-5-methyl-1-((4-methylpyridin-2-yl)methyl)-1H-indole-2-carboxylic acid]	> 9.70	230 nM	–
Cc1cc(OCCCc2c3n(c4c(-c5c(C)cc(OCCN6CCCC6)cc5C)c(Cl)ccc24)[C@H](C)CN(c2cn(C)c4ccc(C(=O)O)cc24)C3=O)cc(C)c1Cl [Example 508, (R)-3-(7-chloro-10-(3-(4-chloro-3,5-dimethylphenoxy)propyl)-6-(2,6-dimethyl-4-(2-(pyrrolidin-1-yl)ethoxy)phenyl)-4-methyl-1-oxo-3,4-dihydropyrazino[1,2-a]indol-2(1H)-yl)-1-methyl-1H-indole-5-carboxylic acid]	8.62	450 nM	–
(R)-7-Chloro-10-(3-(4-chloro-3,5-dimethylphenoxy)propyl)-4-methyl-2-(5-(1-methyl-1H-1,2,4-triazol-3-yl)-1-(2-morpholinoethyl)-1H-indol-3-yl)-4-(1,3,5-trimethyl-1H-pyrazol-4-yl)-3,4-dihydropyrazino[1,2-a]indol-1(2H)-one [Example 583]	9.14	–	< 200 nM
Cc1cc(OCCCc2c3n(c4c(-c5c(C)nn(C)c5C)c(Cl)ccc24)[C@H](C)CN(c2cn(CC(=O)N4CCOCC4)c4ccc(-c5ncn(C)n5)cc24)C3=O)cc(C)c1Cl [Example 525, (R)-7-Chloro-10-(3-(4-chloro-3,5-dimethylphenoxy)propyl)-4-methyl-2-(5-(1-methyl-1H-1,2,4-triazol-3-yl)-1-(2-morpholino-2-oxoethyl)-1H-indol-3-yl)-6-(1,3,5-trimethyl-1H-pyrazol-4-yl)-3,4-dihydropyrazino[1,2-a]indol-1(2H)-one]	9.39	330 nM	–
Cc1cc(OCCCc2c3n(c4c(-c5c(C)nn(C)c5C)c(Cl)ccc24)[C@H](C)CN(c2cc(NC(=O)CN(C)C)cc4c(C(=O)O)cn(C)c24)C3=O)cc(C)c1Cl [Example 542, (R)-7-(7-Chloro-10-(3-(4-chloro-3,5-dimethylphenoxy)propyl)-4-methyl-1-oxo-6-(1,3,5-trimethyl-1H-pyrazol-4-yl)-3,4-dihydropyrazino[1,2-a]indol-2(1H)-yl)-5-(2-(dimethylamino)acetamido)-1-methyl-1H-indole-3-carboxylic acid]	9.32	3300 nM	–
COCCOCc1cc(N2C[C@@H](C)n3c(c(CCCOc4cc(C)c(Cl)c(C)c4)c4ccc(Cl)c(-c5c(C)nn(C)c5C)c43)C2=O)c2c(c1)cc(C(=O)O)n2C [Example 595, (R)-7-(7-chloro-10-(3-(4-chloro-3,5-dimethylphenoxy)propyl)-4-methyl-1-oxo-6-(1,3,5-trimethyl-1H-pyrazol-4-yl)-3,4-dihydropyrazino[1,2-a]indol-2(1H)-yl)-5-((2-methoxyethoxy)methyl)-1-methyl-1H-indole-2-carboxylic acid]	> 9.70	< 200 nM	–
COCCn1c(C(=O)O)cc2c(OC)ccc(N3C[C@@H](C)n4c(c(CCCOc5cc(C)c(Cl)c(C)c5)c5ccc(Cl)c(-c6c(C)n[nH]c6C)c54)C3=O)c21 [Example 728, (R)-7-(7-chloro-10-(3-(4-chloro-3,5-dimethylphenoxy)propyl)-6-(3,5-dimethyl-1H-pyrazol-4-yl)-4-methyl-1-oxo-3,4-dihydropyrazino[1,2-a]indol-2(1H)-yl)-4-methoxy-1-(2-methoxyethyl)-1H-indole-2-carboxylic acid]	> 9.70	710 nM	–
Cc1cc(OCCCc2c3n(c4c(-c5c(C)nn(C)c5C)c(Cl)ccc24)[C@H](C)CN(c2cc(N(C)C(=O)CN4CCCC4)cc4c(C(=O)O)cn(C)c24)C3=O)cc(C)c1Cl [Example 613, (R)-7-(7-chloro-10-(3-(4-chloro-3,5-dimethylphenoxy)propyl)-4-methyl-1-oxo-6-(1,3,5-trimethyl-1H-pyrazol-4-yl)-3,4-dihydropyrazino[1,2-a]indol-2(1H)-yl)-1-methyl-5-(N-methyl-2-(pyrrolidin-1-yl)acetamido)-1H-indole-3-carboxylic acid]	8.72	–	–
COCCn1c(C(=O)O)cc2cc(C)cc(N3C[C@@H](C)n4c(c(CCCOc5cc(C)c(Cl)c(C)c5)c5ccc(Cl)c(-c6c(C)nn(C)c6C)c54)C3=O)c21 [Example 709, (M, R)-7-(7-chloro-10-(3-(4-chloro-3,5-dimethylphenoxy)propyl)-4-methyl-1-oxo-6-(1,3,5-trimethyl-1H-pyrazol-4-yl)-3,4-dihydropyrazino[1,2-a]indol-2(1H)-yl)-1-(2-methoxyethyl)-5-methyl-1H-indole-2-carboxylic acid]	> 9.70	–	–
COCCn1c(C(=O)O)cc2cc(C)cc(N3C[C@@H](C)n4c(c(CCCOc5cc(C)c(Cl)c(C)c5)c5ccc(Cl)c(-c6c(C)nn(C)c6C)c54)C3=O)c21 [Example 710, (P, R)-7-(7-chloro-10-(3-(4-chloro-3,5-dimethylphenoxy)propyl)-4-methyl-1-oxo-6-(1,3,5-trimethyl-1H-pyrazol-4-yl)-3,4-dihydropyrazino[1,2-a]indol-2(1H)-yl)-1-(2-methoxyethyl)-5-methyl-1H-indole-2-carboxylic acid]	> 9.70	–	–
Cc1cc(OCCCc2c3n(c4c(-c5c(C)nn(C)c5C)c(Cl)ccc24)[C@H](C)CN(c2cc(NC(=O)CN4CCN(C)CC4)cc4c(C(=O)O)cn(C)c24)C3=O)cc(C)c1Cl [Example 554, (R)-7-(7-chloro-10-(3-(4-chloro-3,5-dimethylphenoxy)propyl)-4-methyl-1-oxo-6-(1,3,5-trimethyl-1H-pyrazol-4-yl)-3,4-dihydropyrazino[1,2-a]indol-2(1H)-yl)-1-methyl-5-(2-(4-methylpiperazin-1-yl)acetamido)-1H-indole-3-carboxylic acid]	9.59	–	–
Cc1cc(OCCCc2c3n(c4c(-c5c(C)nn(C)c5C)c(Cl)ccc24)[C@H](C)CN(c2cc(NC(=O)CCN4CCN(C)CC4)cc4c(C(=O)O)cn(C)c24)C3=O)cc(C)c1Cl [Example 551, (R)-7-(7-chloro-10-(3-(4-chloro-3,5-dimethylphenoxy)propyl)-4-methyl-1-oxo-6-(1,3,5-trimethyl-1H-pyrazol-4-yl)-3,4-dihydropyrazino[1,2-a]indol-2(1H)-yl)-1-methyl-5(3-(4-methylpiperazin-1-yl)propanamido)-1H-indole-3-carboxylic acid]	9.52	–	–
